# Tests used:
# [1] = system: M. abscessus subsp. abscessus ATCC 19977 MXF^r-2 (GyrA D96N); experiment: MIC, resistant mutant; type: cell-based, Mycobacterium abscessus; settings: Mycobacteroides abscessus, ATCC19977
# [2] = system: M. abscessus subsp. abscessus K21; design: method as in PMID 19171799; settings: abscessus K21, erm(41) C28; cited from earlier work
# [3] = system: M. abscessus subsp. bolletii M506; design: method as in PMID 19171799; settings: bolletii M506, erm(41) C28; cited from earlier work
# [4] = system: M. abscessus subsp. abscessus M404; design: method as in PMID 19171799; settings: abscessus M404, erm(41) C28; cited from earlier work
# [5] = system: M. abscessus subsp. abscessus ATCC 19977 MXF^r-1 (GyrA D96Y); experiment: MIC, resistant mutant; type: cell-based, Mycobacterium abscessus; settings: Mycobacteroides abscessus, ATCC19977
# [6] = system: M. abscessus subsp. abscessus ATCC 19977 MXF^r-3 (GyrA D96G); experiment: MIC, resistant mutant; type: cell-based, Mycobacterium abscessus; settings: Mycobacteroides abscessus, ATCC19977
# [7] = system: M. abscessus subsp. abscessus Bamboo 844^r-2 (GyrA D91N); experiment: MIC, resistant mutant; type: cell-based, Mycobacterium abscessus; settings: Mycobacteroides abscessus
# [8] = system: M. abscessus subsp. bolletii CCUG 50184T; experiment: MIC, broth microdilution; type: cell-based, Mycobacterium abscessus; settings: Mycobacteroides abscessus, 72 h, 90% growth inhibition, 3 days
# Description: (§1) MIC was determined using the broth microdilution method in 96-well plates as described previously ([47]). Briefly, a 10-point 2-fold serial dilution of compounds was performed in 96-well plates (Costar 3370; Corning, USA) starting at twice the desired highest concentration. […] One hundred microliters of the bacterial suspension was seeded onto the 96-well plates containing 100 μl of the serially diluted compounds to give a final volume of 200 μl in each well with the final OD600 of 0.005. The plates were sealed with parafilm, placed onto wet paper towels in a lock-lock box and incubated for 3 days at 37°C with orbital shaking at 90 rpm. […] Absorbance values at day 3 were subtracted from the day 0 readout. Percent growth inhibition was calculated by dividing the absolute absorbance value of treated cells with untreated control and multiplying by 100. CLR was included in all MIC experiments as a positive control to monitor assay reproducibility. MIC was defined as 90% of growth inhibition relative to untreated controls.
# [9] = system: M. abscessus subsp. abscessus M404; experiment: MIC, broth microdilution; type: cell-based, Mycobacterium abscessus; settings: Mycobacteroides abscessus, 72 h, 90% growth inhibition, 3 days
# Description: as §1
# [10] = system: M. abscessus subsp. bolletii M232; experiment: MIC, broth microdilution; type: cell-based, Mycobacterium abscessus; settings: Mycobacteroides abscessus, 72 h, 90% growth inhibition, 3 days
# Description: as §1
# [11] = system: M. abscessus subsp. abscessus K21; experiment: MIC, broth microdilution; type: cell-based, Mycobacterium abscessus; settings: Mycobacteroides abscessus, 72 h, 90% growth inhibition, 3 days
# Description: as §1
# [12] = system: M. abscessus subsp. massiliense CCUG 48898T; experiment: MIC, broth microdilution; type: cell-based, Mycobacterium abscessus; settings: Mycobacteroides abscessus, 72 h, 90% growth inhibition, 3 days
# Description: as §1
# [13] = system: M. abscessus subsp. abscessus Bamboo; experiment: MIC, broth microdilution; type: cell-based, Mycobacterium abscessus; settings: abscessus Bamboo wild type, 90% growth inhibition, 3 days
# Description: as §1
# [14] = system: M. abscessus subsp. massiliense M111; experiment: MIC, broth microdilution; type: cell-based, Mycobacterium abscessus; settings: Mycobacteroides abscessus, 72 h, 90% growth inhibition, 3 days
# Description: as §1
# [15] = system: M. abscessus subsp. abscessus ATCC 19977; experiment: MIC, broth microdilution; type: cell-based, Mycobacterium abscessus; settings: abscessus ATCC 19977 wild type, 90% growth inhibition, 3 days
# Description: as §1
# [16] = system: M. abscessus subsp. abscessus M337; experiment: MIC, broth microdilution; type: cell-based, Mycobacterium abscessus; settings: Mycobacteroides abscessus, 72 h, 90% growth inhibition, 3 days
# Description: as §1
# [17] = system: M. abscessus subsp. abscessus M9; experiment: MIC, broth microdilution; type: cell-based, Mycobacterium abscessus; settings: Mycobacteroides abscessus, 72 h, 90% growth inhibition, 3 days
# Description: as §1
# [18] = system: M. abscessus subsp. abscessus M421; experiment: MIC, broth microdilution; type: cell-based, Mycobacterium abscessus; settings: Mycobacteroides abscessus, 72 h, 90% growth inhibition, 3 days
# Description: as §1
# [19] = system: M. abscessus subsp. abscessus M199; experiment: MIC, broth microdilution; type: cell-based, Mycobacterium abscessus; settings: Mycobacteroides abscessus, 72 h, 90% growth inhibition, 3 days
# Description: as §1
# [20] = system: M. abscessus subsp. bolletii M506; experiment: MIC, broth microdilution; type: cell-based, Mycobacterium abscessus; settings: Mycobacteroides abscessus, 72 h, 90% growth inhibition, 3 days
# Description: as §1
# [21] = system: M. abscessus subsp. massiliense M111; design: method as in PMID 19171799; settings: massiliense M111, erm(41) deletion; cited from earlier work
# [22] = system: M. abscessus subsp. abscessus ATCC 19977; design: method as in PMID 19171799; settings: abscessus ATCC 19977, erm(41) T28; inducible resistance by sequevar; cited from earlier work
# [23] = system: M. abscessus subsp. abscessus M421; design: method as in PMID 19171799; settings: abscessus M421, erm(41) T28; cited from earlier work
# [24] = system: M. abscessus subsp. abscessus M337; design: method as in PMID 19171799; settings: abscessus M337, erm(41) T28; cited from earlier work
# [25] = system: M. abscessus subsp. abscessus M199; design: method as in PMID 19171799; settings: abscessus M199, erm(41) T28; cited from earlier work
# [26] = system: M. abscessus subsp. bolletii M232; design: method as in PMID 19171799; settings: bolletii M232, erm(41) T28; cited from earlier work
# [27] = system: M. abscessus subsp. abscessus Bamboo; design: method as in PMID 19171799; settings: erm(41) C28; cited from earlier work
# [28] = system: M. abscessus subsp. abscessus Bamboo 844^r-3 (GyrB S473W); experiment: MIC, resistant mutant; type: cell-based, Mycobacterium abscessus; settings: Mycobacteroides abscessus
# [29] = system: M. abscessus subsp. bolletii CCUG 50184T; design: method as in PMID 19171799; settings: erm(41) T28; cited from earlier work
# [30] = system: M. abscessus subsp. abscessus M9; design: method as in PMID 19171799; settings: abscessus M9, erm(41) T28; cited from earlier work
# [31] = system: M. abscessus subsp. abscessus ATCC 19977 844-TMF^r-4 (GyrB M474I); experiment: MIC, resistant mutant; type: cell-based, Mycobacterium abscessus; settings: Mycobacteroides abscessus, ATCC19977
# [32] = system: M. abscessus subsp. massiliense CCUG 48898T; design: method as in PMID 19171799; settings: erm(41) deletion; cited from earlier work
# [33] = molecular target: recombinant M. abscessus wild-type DNA gyrase (Mycobacteroides abscessus, UniProt B1ME45+B1ME58); experiment: biochemical; design: species or system Mycobacterium abscessus; settings: wild-type DNA gyrase, up to 50 μM
# [34] = Mycobacteroides abscessus, 72 h
# [35] = Mycobacteroides abscessus, ATCC19977, 72 h
# Sequence of recombinant M. abscessus wild-type DNA gyrase (B1ME58 entry or part of it): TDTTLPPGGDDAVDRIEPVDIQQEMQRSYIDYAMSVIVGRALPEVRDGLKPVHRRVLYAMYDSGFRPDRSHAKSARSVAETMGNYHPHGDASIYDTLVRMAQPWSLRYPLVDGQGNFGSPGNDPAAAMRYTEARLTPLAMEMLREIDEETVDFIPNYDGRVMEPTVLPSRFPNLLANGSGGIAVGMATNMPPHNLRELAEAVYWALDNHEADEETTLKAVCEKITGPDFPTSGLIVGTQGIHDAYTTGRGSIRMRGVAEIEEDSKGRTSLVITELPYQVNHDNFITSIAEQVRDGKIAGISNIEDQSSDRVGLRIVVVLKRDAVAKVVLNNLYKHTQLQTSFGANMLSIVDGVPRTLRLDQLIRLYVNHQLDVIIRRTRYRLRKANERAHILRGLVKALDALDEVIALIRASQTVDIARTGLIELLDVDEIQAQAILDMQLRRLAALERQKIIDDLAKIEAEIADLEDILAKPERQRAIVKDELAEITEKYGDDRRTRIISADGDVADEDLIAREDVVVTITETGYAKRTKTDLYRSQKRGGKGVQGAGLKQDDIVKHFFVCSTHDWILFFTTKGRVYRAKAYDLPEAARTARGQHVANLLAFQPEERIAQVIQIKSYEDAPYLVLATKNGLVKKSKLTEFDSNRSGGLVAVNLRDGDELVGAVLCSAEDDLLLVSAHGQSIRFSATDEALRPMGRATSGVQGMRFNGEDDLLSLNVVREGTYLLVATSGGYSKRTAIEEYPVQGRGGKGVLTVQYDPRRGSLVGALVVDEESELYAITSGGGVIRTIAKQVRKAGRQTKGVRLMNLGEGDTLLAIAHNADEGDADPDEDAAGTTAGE
# Sequence of recombinant M. abscessus wild-type DNA gyrase (B1ME45 entry or part of it): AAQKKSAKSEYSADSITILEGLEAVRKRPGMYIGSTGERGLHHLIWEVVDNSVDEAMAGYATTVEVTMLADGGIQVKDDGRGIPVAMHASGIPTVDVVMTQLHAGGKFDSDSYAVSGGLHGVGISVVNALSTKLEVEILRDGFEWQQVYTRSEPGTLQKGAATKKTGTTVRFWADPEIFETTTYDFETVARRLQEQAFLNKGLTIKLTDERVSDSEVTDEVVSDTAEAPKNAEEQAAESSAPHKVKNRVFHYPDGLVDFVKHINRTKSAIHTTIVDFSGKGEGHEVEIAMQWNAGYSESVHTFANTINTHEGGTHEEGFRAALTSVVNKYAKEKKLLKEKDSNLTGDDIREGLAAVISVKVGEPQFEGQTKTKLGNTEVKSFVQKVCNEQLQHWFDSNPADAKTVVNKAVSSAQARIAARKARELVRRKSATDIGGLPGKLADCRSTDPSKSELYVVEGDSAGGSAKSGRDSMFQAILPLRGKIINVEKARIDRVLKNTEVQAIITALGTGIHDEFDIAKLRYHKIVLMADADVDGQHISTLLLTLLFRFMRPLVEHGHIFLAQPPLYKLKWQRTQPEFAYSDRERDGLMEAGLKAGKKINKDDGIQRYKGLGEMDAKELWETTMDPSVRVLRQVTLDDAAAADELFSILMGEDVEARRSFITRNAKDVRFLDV
SMILES,MIC [1] [µM],MIC [5] [µM],MIC [6] [µM],MIC [7] [µM],MIC [8] [µM],MIC [9] [µM],MIC [10] [µM],MIC [11] [µM],MIC [12] [µM],"MIC [13, 34] [µM]",MIC [14] [µM],"MIC [15, 35] [µM]",MIC [16] [µM],MIC [17] [µM],MIC [18] [µM],MIC [19] [µM],MIC [20] [µM],MIC [28] [µM],MIC [31] [µM],further results
"CC[C@H]1OC(=O)[C@H](C)[C@@H](O[C@H]2C[C@@](C)(OC)[C@@H](O)[C@H](C)O2)[C@H](C)[C@@H](O[C@@H]2O[C@H](C)C[C@H](N(C)C)[C@H]2O)[C@](C)(OC)C[C@@H](C)C(=O)[C@H](C)[C@@H](O)[C@]1(C)O [CLR, clarithromycin]",1,2,1,0.3,1.2,0.8,3.2,0.6,0.2,0.4,0.2,2,3.2,3.2,3.2,3.2,0.8,0.4,2,CLR susceptibility [2]: Sensitive; CLR susceptibility [3]: Sensitive; CLR susceptibility [4]: Sensitive; MIC [15]: 2 µM; CLR susceptibility [21]: Sensitive; CLR susceptibility [22]: Resistant; CLR susceptibility [23]: Resistant; CLR susceptibility [24]: Resistant; CLR susceptibility [25]: Resistant; CLR susceptibility [26]: Resistant; CLR susceptibility [27]: Sensitive; CLR susceptibility [29]: Resistant; CLR susceptibility [30]: Resistant; CLR susceptibility [32]: Sensitive; effect on supercoiling activity [33]: did not affect the activity of the enzyme
"COc1c(N2C[C@@H]3CCCN[C@@H]3C2)c(F)cc2c(=O)c(C(=O)O)cn(C3CC3)c12 [MXF, moxifloxacin]",80,100,80,30,6.3,3,1.5,3,6.3,4,3.2,3,1.5,1.5,1.5,2.5,2.5,2,2,MIC [13]: 4 µM

# — PMC8284461, “Piperidine-4-Carboxamides Target DNA Gyrase in Mycobacterium abscessus” (Antimicrobial Agents and Chemotherapy, 2021)
